System: Encephalomyocarditis virus
Assay: Antiviral activity against Encephalomyocarditis virus infected in CF-1 mouse assessed as host survival time ratio at 10 mg/kg, sc administered 28, 22, 2 hrs before and 2 hrs after virus inoculation
Type: functional
Settings: route subcutaneous

Compound	Ratio
Cl.c1cc2oc3ccc(OCCCN4CCCCC4)cc3c2cc1OCCCN1CCCCC1	1.46
CCN(CC)CCOc1ccc2sc3ccc(OCCN(CC)CC)cc3c2c1.O=C(O)/C=C/C(=O)O	0.96
CC(COc1ccc2sc3ccc(OCC(C)CN(C)C)cc3c2c1)CN(C)C.Cl (centres undefined)	0.96
CN(C)CCCCC(C)(C)COC(=O)c1ccc2c(c1)sc1ccc(C(=O)OCC(C)(C)CCCN(C)C)cc12.Cl	1.07
CCn1c2ccc(OCCCN(C)C)cc2c2cc(OCCCN(C)C)ccc21.Cl	0.92
CCCN(CCC)CCCOC(=O)c1ccc2oc3ccc(C(=O)OCCCN(CCC)CCC)cc3c2c1.Cl	0.96
CC(COc1ccc2oc3ccc(OCC(C)CN(C)C)cc3c2c1)CN(C)C.Cl (centres undefined)	1.2
CCCCN(CCCC)CCCNC(=O)c1ccc2oc3ccc(C(=O)NCCCN(CCCC)CCCC)cc3c2c1.O=C(O)CC(O)(CC(=O)O)C(=O)O	1.17
Cl.c1cc2oc3ccc(OCCN4CCCC4)cc3c2cc1OCCN1CCCC1	1.08
CC1CCN(CCCC(=O)c2ccc3oc4ccc(C(=O)CCCN5CCC(C)CC5)cc4c3c2)CC1	1.23
Cl.O=C(OCCCN1CCCCC1)c1ccc2oc3ccc(C(=O)OCCCN4CCCCC4)cc3c2c1	1.11
Cl.O=C(CCCN1CCOCC1)c1ccc2c(c1)sc1ccc(C(=O)CCCN3CCOCC3)cc12	1.13
CN(C)CCCC(=O)c1ccc2sc3ccc(C(=O)CCCN(C)C)cc3c2c1.Cl	1.09
O=C(CCCN1CCCCC1)c1ccc2c(c1)sc1ccc(C(=O)CCCN3CCCCC3)cc12	1.21
CC(C)N(CCOc1ccc2oc3ccc(OCCN(C(C)C)C(C)C)cc3c2c1)C(C)C	0.88
CCN(CC)CCOC(=O)c1ccc2oc3ccc(C(=O)OCCN(CC)CC)cc3c2c1.Cl	1
CCN(CC)CCOc1ccc2oc3ccc(OCCN(CC)CC)cc3c2c1.Cl	1.21
CCn1c2ccc(C(=O)CCCN3CCCCC3)cc2c2cc(C(=O)CCCN3CCCCC3)ccc21.Cl	1.68

System: Encephalomyocarditis virus
Assay: Antiviral activity against Encephalomyocarditis virus infected in CF-1 mouse assessed as host survival time ratio at 50 mg/kg, sc administered 28, 22, 2 hrs before and 2 hrs after virus inoculation
Type: functional
Settings: route subcutaneous

Compound	Ratio
Cl.c1cc2oc3ccc(OCCCN4CCCCC4)cc3c2cc1OCCCN1CCCCC1	1.44
CCN(CC)CCOc1ccc2sc3ccc(OCCN(CC)CC)cc3c2c1.O=C(O)/C=C/C(=O)O	1.12
CC(COc1ccc2sc3ccc(OCC(C)CN(C)C)cc3c2c1)CN(C)C.Cl (centres undefined)	1.08
CN(C)CCCCC(C)(C)COC(=O)c1ccc2c(c1)sc1ccc(C(=O)OCC(C)(C)CCCN(C)C)cc12.Cl	1.42
CCn1c2ccc(OCCCN(C)C)cc2c2cc(OCCCN(C)C)ccc21.Cl	1.1
CCCN(CCC)CCCOC(=O)c1ccc2oc3ccc(C(=O)OCCCN(CCC)CCC)cc3c2c1.Cl	1.21
CC(COc1ccc2oc3ccc(OCC(C)CN(C)C)cc3c2c1)CN(C)C.Cl (centres undefined)	1.14
CCCCN(CCCC)CCCNC(=O)c1ccc2oc3ccc(C(=O)NCCCN(CCCC)CCCC)cc3c2c1.O=C(O)CC(O)(CC(=O)O)C(=O)O	1.24
Cl.c1cc2oc3ccc(OCCN4CCCC4)cc3c2cc1OCCN1CCCC1	1.04
CC1CCN(CCCC(=O)c2ccc3oc4ccc(C(=O)CCCN5CCC(C)CC5)cc4c3c2)CC1	2.13
Cl.O=C(OCCCN1CCCCC1)c1ccc2oc3ccc(C(=O)OCCCN4CCCCC4)cc3c2c1	1.22
Cl.O=C(CCCN1CCOCC1)c1ccc2c(c1)sc1ccc(C(=O)CCCN3CCOCC3)cc12	1.33
CN(C)CCCC(=O)c1ccc2sc3ccc(C(=O)CCCN(C)C)cc3c2c1.Cl	1.66
O=C(CCCN1CCCCC1)c1ccc2c(c1)sc1ccc(C(=O)CCCN3CCCCC3)cc12	1.71
CC(C)N(CCOc1ccc2oc3ccc(OCCN(C(C)C)C(C)C)cc3c2c1)C(C)C	1.24
CCN(CC)CCOC(=O)c1ccc2oc3ccc(C(=O)OCCN(CC)CC)cc3c2c1.Cl	1.02
CCN(CC)CCOc1ccc2oc3ccc(OCCN(CC)CC)cc3c2c1.Cl	1.31
CCn1c2ccc(C(=O)CCCN3CCCCC3)cc2c2cc(C(=O)CCCN3CCCCC3)ccc21.Cl	1.58

System: Encephalomyocarditis virus
Assay: Antiviral activity against Encephalomyocarditis virus infected in CF-1 mouse assessed as host survival time ratio at 250 mg/kg, sc administered 28, 22, 2 hrs before and 2 hrs after virus inoculation
Type: functional
Settings: route subcutaneous

Compound	Ratio
Cl.c1cc2oc3ccc(OCCCN4CCCCC4)cc3c2cc1OCCCN1CCCCC1	0.63
CCN(CC)CCOc1ccc2sc3ccc(OCCN(CC)CC)cc3c2c1.O=C(O)/C=C/C(=O)O	1.32
CC(COc1ccc2sc3ccc(OCC(C)CN(C)C)cc3c2c1)CN(C)C.Cl (centres undefined)	0.84
CN(C)CCCCC(C)(C)COC(=O)c1ccc2c(c1)sc1ccc(C(=O)OCC(C)(C)CCCN(C)C)cc12.Cl	1.11
CCn1c2ccc(OCCCN(C)C)cc2c2cc(OCCCN(C)C)ccc21.Cl	0.52
CCCN(CCC)CCCOC(=O)c1ccc2oc3ccc(C(=O)OCCCN(CCC)CCC)cc3c2c1.Cl	1.88
CC(COc1ccc2oc3ccc(OCC(C)CN(C)C)cc3c2c1)CN(C)C.Cl (centres undefined)	0.57
CCCCN(CCCC)CCCNC(=O)c1ccc2oc3ccc(C(=O)NCCCN(CCCC)CCCC)cc3c2c1.O=C(O)CC(O)(CC(=O)O)C(=O)O	0.85
Cl.c1cc2oc3ccc(OCCN4CCCC4)cc3c2cc1OCCN1CCCC1	0.88
CC1CCN(CCCC(=O)c2ccc3oc4ccc(C(=O)CCCN5CCC(C)CC5)cc4c3c2)CC1	2.04
Cl.O=C(OCCCN1CCCCC1)c1ccc2oc3ccc(C(=O)OCCCN4CCCCC4)cc3c2c1	0.91
Cl.O=C(CCCN1CCOCC1)c1ccc2c(c1)sc1ccc(C(=O)CCCN3CCOCC3)cc12	1.98
CN(C)CCCC(=O)c1ccc2sc3ccc(C(=O)CCCN(C)C)cc3c2c1.Cl	1.09
O=C(CCCN1CCCCC1)c1ccc2c(c1)sc1ccc(C(=O)CCCN3CCCCC3)cc12	2.08
CC(C)N(CCOc1ccc2oc3ccc(OCCN(C(C)C)C(C)C)cc3c2c1)C(C)C	1.14
CCN(CC)CCOC(=O)c1ccc2oc3ccc(C(=O)OCCN(CC)CC)cc3c2c1.Cl	1.09
CCN(CC)CCOc1ccc2oc3ccc(OCCN(CC)CC)cc3c2c1.Cl	0.91
CCn1c2ccc(C(=O)CCCN3CCCCC3)cc2c2cc(C(=O)CCCN3CCCCC3)ccc21.Cl	0.56

System: Encephalomyocarditis virus
Assay: Antiviral activity against Encephalomyocarditis virus infected in CF-1 mouse assessed as host survival time ratio at 50 mg/kg, po administered via gavage at 28, 22, 2 hrs before and 2 hrs after virus inoculation
Type: functional
Settings: not given

Compound	Ratio
Cl.c1cc2oc3ccc(OCCCN4CCCCC4)cc3c2cc1OCCCN1CCCCC1	1.02
CCN(CC)CCOc1ccc2sc3ccc(OCCN(CC)CC)cc3c2c1.O=C(O)/C=C/C(=O)O	0.88
CC(COc1ccc2sc3ccc(OCC(C)CN(C)C)cc3c2c1)CN(C)C.Cl (centres undefined)	1.04
CCn1c2ccc(OCCCN(C)C)cc2c2cc(OCCCN(C)C)ccc21.Cl	0.9
CC(COc1ccc2oc3ccc(OCC(C)CN(C)C)cc3c2c1)CN(C)C.Cl (centres undefined)	0.9
Cl.c1cc2oc3ccc(OCCN4CCCC4)cc3c2cc1OCCN1CCCC1	0.98
CC1CCN(CCCC(=O)c2ccc3oc4ccc(C(=O)CCCN5CCC(C)CC5)cc4c3c2)CC1	1.11
Cl.O=C(OCCCN1CCCCC1)c1ccc2oc3ccc(C(=O)OCCCN4CCCCC4)cc3c2c1	0.96
Cl.O=C(CCCN1CCOCC1)c1ccc2c(c1)sc1ccc(C(=O)CCCN3CCOCC3)cc12	0.9
CN(C)CCCC(=O)c1ccc2sc3ccc(C(=O)CCCN(C)C)cc3c2c1.Cl	1
O=C(CCCN1CCCCC1)c1ccc2c(c1)sc1ccc(C(=O)CCCN3CCCCC3)cc12	1.1
CC(C)N(CCOc1ccc2oc3ccc(OCCN(C(C)C)C(C)C)cc3c2c1)C(C)C	0.96
CCN(CC)CCOC(=O)c1ccc2oc3ccc(C(=O)OCCN(CC)CC)cc3c2c1.Cl	1.02
CCN(CC)CCOc1ccc2oc3ccc(OCCN(CC)CC)cc3c2c1.Cl	1.17
CCn1c2ccc(C(=O)CCCN3CCCCC3)cc2c2cc(C(=O)CCCN3CCCCC3)ccc21.Cl	1.09

System: Encephalomyocarditis virus
Assay: Antiviral activity against Encephalomyocarditis virus infected in CF-1 mouse assessed as host survival time ratio at 250 mg/kg, po administered via gavage as single dose at 22 to 28 hrs before virus inoculation
Type: functional
Settings: not given

Compound	Ratio
Cl.c1cc2oc3ccc(OCCCN4CCCCC4)cc3c2cc1OCCCN1CCCCC1	1.02
CCN(CC)CCOc1ccc2sc3ccc(OCCN(CC)CC)cc3c2c1.O=C(O)/C=C/C(=O)O	0.86
CC(COc1ccc2sc3ccc(OCC(C)CN(C)C)cc3c2c1)CN(C)C.Cl (centres undefined)	0.94
CCn1c2ccc(OCCCN(C)C)cc2c2cc(OCCCN(C)C)ccc21.Cl	0.88
CC(COc1ccc2oc3ccc(OCC(C)CN(C)C)cc3c2c1)CN(C)C.Cl (centres undefined)	0.92
Cl.c1cc2oc3ccc(OCCN4CCCC4)cc3c2cc1OCCN1CCCC1	1
CC1CCN(CCCC(=O)c2ccc3oc4ccc(C(=O)CCCN5CCC(C)CC5)cc4c3c2)CC1	1.19
Cl.O=C(OCCCN1CCCCC1)c1ccc2oc3ccc(C(=O)OCCCN4CCCCC4)cc3c2c1	1.02
Cl.O=C(CCCN1CCOCC1)c1ccc2c(c1)sc1ccc(C(=O)CCCN3CCOCC3)cc12	0.94
CN(C)CCCC(=O)c1ccc2sc3ccc(C(=O)CCCN(C)C)cc3c2c1.Cl	0.95
O=C(CCCN1CCCCC1)c1ccc2c(c1)sc1ccc(C(=O)CCCN3CCCCC3)cc12	1.23
CC(C)N(CCOc1ccc2oc3ccc(OCCN(C(C)C)C(C)C)cc3c2c1)C(C)C	0.88
CCN(CC)CCOC(=O)c1ccc2oc3ccc(C(=O)OCCN(CC)CC)cc3c2c1.Cl	0.98
CCN(CC)CCOc1ccc2oc3ccc(OCCN(CC)CC)cc3c2c1.Cl	1.02
CCn1c2ccc(C(=O)CCCN3CCCCC3)cc2c2cc(C(=O)CCCN3CCCCC3)ccc21.Cl	1.2
